Values quoted from earlier work, collected in patent US20010006974A1, “COMBINATION THERAPY FOR LYMPHOPROLIFERATIVE DISEASES” (priority 1999, published 2001).

Assays:
[1] = tested on: refractory/relapsed B-CLL; conditions: refractory/relapsed B-CLL patients
refractory lymphomas = conditions: monotherapy; 5 mg/m^2 for 3 consecutive day every 3 weeks
bcl-2 = conditions: correlated with theophylline-induced apoptosis
cAMP = conditions: correlated with theophylline-induced apoptosis

Row | SMILES | response rate [1] | response rate (refractory lymphomas) | activity as a single agent (alkylator-refractory CLL) | bcl-2 regulation (bcl-2) | intracellular level of cAMP (cAMP)
1 | OC[C@H]1O[C@@H](n2cnc3c2NC=NC[C@H]3O)C[C@@H]1O [pentostatin, 2′-deoxycoformycin] | 30% | 32% | – | – | –
2 | Cn1c(=O)c2[nH]cnc2n(C)c1=O [theophylline] | – | – | no activity | down-regulation | increased
